Assay results as given in article PMC5218480 (PLoS ONE, 2017).

System: MV-4-11 cells
Test: Gene expression microarray analysis (Affymetrix PrimeView) and GSEA
Assay type: cell-based, human
Set-up: RFU PODN (11730768_x_at) / Fold change /veh PODN (11730768_x_at) / RFU LINC00158 (11744669_a_at) / Fold change /veh LINC00158 (11744669_a_at) / RFU DUSP10 (11751237_a_at) / Fold change /veh DUSP10 (11751237_a_at) / RFU ID3 (11757404_x_at) / Fold change /veh ID3 (11757404_x_at) / RFU PLEKHG5 (11737974_s_at) / Fold change /veh PLEKHG5 (11737974_s_at) / RFU LRRC4B (11730491_at) / Fold change /veh LRRC4B (11730491_at) / RFU GIMAP4 (11747438_a_at) / Fold change /veh GIMAP4 (11747438_a_at) / RFU KRT8 (11758183_x_at) / Fold change /veh KRT8 (11758183_x_at) / RFU CNN1 (11734310_a_at) / Fold change /veh CNN1 (11734310_a_at) / RFU VPS37D (11726825_at) / Fold change /veh VPS37D (11726825_at) / RFU C10orf10 (11716522_x_at) / Fold change /veh C10orf10 (11716522_x_at) / RFU KIR2DL2 /// KIR2DL4 /// KIR2DL5A /// KIR2DL5B /// KIR2DS1 /// KIR2DS2 /// KIR2DS3 /// KIR2DS4 /// KIR3DL3 /// KIR3DL3 /// KIR3DS1 (11738374_at) / Fold change /veh KIR2DL2 /// KIR2DL4 /// KIR2DL5A /// KIR2DL5B /// KIR2DS1 /// KIR2DS2 /// KIR2DS3 /// KIR2DS4 /// KIR3DL3 /// KIR3DL3 /// KIR3DS1 (11738374_at) / RFU C1QL1 (11718748_at) / Fold change /veh C1QL1 (11718748_at) / RFU TMPRSS4 (11747572_a_at) / Fold change /veh TMPRSS4 (11747572_a_at) / RFU HAMP (11756126_x_at) / Fold change /veh HAMP (11756126_x_at) / RFU RNFT2 (11725882_a_at) / Fold change /veh RNFT2 (11725882_a_at) / RFU NR4A2 (11747474_a_at) / Fold change /veh NR4A2 (11747474_a_at) / RFU ABCC12 (11746883_a_at) / Fold change /veh ABCC12 (11746883_a_at) / RFU TMEM136 (11760407_x_at) / Fold change /veh TMEM136 (11760407_x_at) / RFU CLDN22 /// WWC2 (11732394_at) / Fold change /veh CLDN22 /// WWC2 (11732394_at) / RFU HLA-DPB1 (11760878_x_at) / Fold change /veh HLA-DPB1 (11760878_x_at) / RFU SPINT1 (11716480_a_at) / Fold change /veh SPINT1 (11716480_a_at) / RFU GAP43 (11754022_s_at) / Fold change /veh GAP43 (11754022_s_at) / RFU A4GNT (11735810_at) / Fold change /veh A4GNT (11735810_at) / RFU PRB3 (11715151_x_at) / Fold change /veh PRB3 (11715151_x_at) / RFU TUBB4B (11761932_at) / Fold change /veh TUBB4B (11761932_at) / RFU CAPN14 (11732068_a_at) / Fold change /veh CAPN14 (11732068_a_at) / RFU TMCC2 (11721928_a_at) / Fold change /veh TMCC2 (11721928_a_at) / RFU IRGQ (11745062_a_at) / Fold change /veh IRGQ (11745062_a_at) / RFU FAM174B (11720279_a_at) / Fold change /veh FAM174B (11720279_a_at) / RFU TMPRSS4 (11748680_a_at) / Fold change /veh TMPRSS4 (11748680_a_at) / RFU FAM212B (11763350_a_at) / Fold change /veh FAM212B (11763350_a_at) / RFU PLEKHG5 (11743358_a_at) / Fold change /veh PLEKHG5 (11743358_a_at) / RFU ZSCAN30 (11745921_a_at) / Fold change /veh ZSCAN30 (11745921_a_at) / RFU CMKLR1 (11741424_a_at) / Fold change /veh CMKLR1 (11741424_a_at) / RFU LOC101060620 /// MAPK8IP1 (11723275_at) / Fold change /veh LOC101060620 /// MAPK8IP1 (11723275_at) / RFU SPTSSB (11747773_x_at) / Fold change /veh SPTSSB (11747773_x_at) / RFU PRSS12 (11739890_at) / Fold change /veh PRSS12 (11739890_at) / RFU BIN1 (11741810_x_at) / Fold change /veh BIN1 (11741810_x_at) / RFU WNT11 (11732464_a_at) / Fold change /veh WNT11 (11732464_a_at) / RFU C10orf10 (11716521_a_at) / Fold change /veh C10orf10 (11716521_a_at) / RFU C5orf56 (11738089_at) / Fold change /veh C5orf56 (11738089_at) / RFU CYB561 (11721691_x_at) / Fold change /veh CYB561 (11721691_x_at) / RFU ANKRD19P (11752326_a_at) / Fold change /veh ANKRD19P (11752326_a_at) / RFU OR2T12 /// OR2T33 /// OR2T8 (11738714_s_at) / Fold change /veh OR2T12 /// OR2T33 /// OR2T8 (11738714_s_at) / RFU VCAN (11748164_a_at) / Fold change /veh VCAN (11748164_a_at) / RFU JSRP1 (11732532_at) / Fold change /veh JSRP1 (11732532_at) / RFU KRTAP10-11 (11738290_x_at) / Fold change /veh KRTAP10-11 (11738290_x_at) / RFU MYO3A (11730013_a_at) / Fold change /veh MYO3A (11730013_a_at) / RFU EBF3 (11725865_a_at) / Fold change /veh EBF3 (11725865_a_at) / RFU CAMK2N1 (11719241_x_at) / Fold change /veh CAMK2N1 (11719241_x_at) / RFU C5orf56 (11738088_a_at) / Fold change /veh C5orf56 (11738088_a_at) / RFU OLFML3 (11715873_a_at) / Fold change /veh OLFML3 (11715873_a_at) / RFU LOC100653217 /// NTM (11731650_a_at) / Fold change /veh LOC100653217 /// NTM (11731650_a_at) / RFU MAPK11 (11762145_a_at) / Fold change /veh MAPK11 (11762145_a_at) / RFU FIZ1 (11724087_x_at) / Fold change /veh FIZ1 (11724087_x_at) / RFU OASL (11726364_x_at) / Fold change /veh OASL (11726364_x_at) / RFU SOX15 (11748057_x_at) / Fold change /veh SOX15 (11748057_x_at) / RFU CD79A (11719716_a_at) / Fold change /veh CD79A (11719716_a_at) / RFU HIST1H1D (11736915_at) / Fold change /veh HIST1H1D (11736915_at) / RFU CASKIN2 (11723855_a_at) / Fold change /veh CASKIN2 (11723855_a_at) / RFU LOC730098 (11760151_x_at) / Fold change /veh LOC730098 (11760151_x_at) / RFU OR4N2 (11742367_at) / Fold change /veh OR4N2 (11742367_at) / RFU PRRT2 (11749266_a_at) / Fold change /veh PRRT2 (11749266_a_at) / RFU SNX32 (11753110_a_at) / Fold change /veh SNX32 (11753110_a_at) / RFU CDHR5 (11726645_a_at) / Fold change /veh CDHR5 (11726645_a_at) / RFU RCAN1 (11760418_a_at) / Fold change /veh RCAN1 (11760418_a_at) / RFU FAM167A (11723789_a_at) / Fold change /veh FAM167A (11723789_a_at) / RFU FAM26E (11764081_at) / Fold change /veh FAM26E (11764081_at) / RFU ISYNA1 (11749810_s_at) / Fold change /veh ISYNA1 (11749810_s_at) / RFU ACY1 (11761880_at) / Fold change /veh ACY1 (11761880_at) / RFU 11764098_at / Fold change /veh 11764098_at / RFU SAMD14 (11745864_x_at) / Fold change /veh SAMD14 (11745864_x_at) / RFU NPB (11741838_a_at) / Fold change /veh NPB (11741838_a_at) / RFU TMPRSS6 (11731388_a_at) / Fold change /veh TMPRSS6 (11731388_a_at) / RFU KRTAP10-2 (11738614_at) / Fold change /veh KRTAP10-2 (11738614_at) / RFU ARHGAP8 /// PRR5-ARHGAP8 (11727945_x_at) / Fold change /veh ARHGAP8 /// PRR5-ARHGAP8 (11727945_x_at) / RFU KRTAP5-7 /// NADSYN1 (11734609_at) / Fold change /veh KRTAP5-7 /// NADSYN1 (11734609_at) / RFU RASL12 (11751679_a_at) / Fold change /veh RASL12 (11751679_a_at) / RFU CDKN2B (11736163_a_at) / Fold change /veh CDKN2B (11736163_a_at) / RFU PRF1 (11729649_at) / Fold change /veh PRF1 (11729649_at) / RFU, ZNF638 /// ZNF638-IT1 / Fold change vs veh, ZNF638 /// ZNF638-IT1 / RFU, PANK3 / Fold change vs veh, PANK3 / RFU, SH3YL1 / Fold change vs veh, SH3YL1 / RFU, ZEB2 / Fold change vs veh, ZEB2 / RFU, NRIP1 / Fold change vs veh, NRIP1 / RFU, PTTG1IP / Fold change vs veh, PTTG1IP / RFU, CAPN2 / Fold change vs veh, CAPN2 / RFU, MED14 / Fold change vs veh, MED14 / RFU, SNORA58 / Fold change vs veh, SNORA58 / RFU, C1orf63 / Fold change vs veh, C1orf63 / RFU, LRRFIP1 / Fold change vs veh, LRRFIP1 / RFU, NDUFAF7 / Fold change vs veh, NDUFAF7 / RFU, SLC12A2 / Fold change vs veh, SLC12A2 / RFU, IBTK / Fold change vs veh, IBTK / RFU, ESF1 / Fold change vs veh, ESF1 / Fold change vs veh, TMEM50B / RFU, TAOK1 / Fold change vs veh, TAOK1 / RFU, ACBD3 / Fold change vs veh, ACBD3 / RFU, TMA16 / Fold change vs veh, TMA16 / RFU, RWDD3 / Fold change vs veh, RWDD3 / RFU, BCAT1 / Fold change vs veh, BCAT1 / RFU, EDEM3 / Fold change vs veh, EDEM3 / RFU, TMEM33 / Fold change vs veh, TMEM33 / RFU, WDR75 / Fold change vs veh, WDR75 / RFU, AHCTF1 / Fold change vs veh, AHCTF1 / RFU, TFRC / Fold change vs veh, TFRC / RFU, ZDHHC17 / Fold change vs veh, ZDHHC17 / RFU, NOM1 / Fold change vs veh, NOM1 / RFU, ARL8B / Fold change vs veh, ARL8B / RFU, ZBTB11 / Fold change vs veh, ZBTB11 / RFU, TAMM41 / Fold change vs veh, TAMM41 / RFU, KIAA1704 /// LOC100996395 / Fold change vs veh, KIAA1704 /// LOC100996395 / RFU, ING1 / Fold change vs veh, ING1 / RFU, TRMT61B / Fold change vs veh, TRMT61B / RFU, FUBP3 / Fold change vs veh, FUBP3 / RFU, TP53 / Fold change vs veh, TP53 / RFU, TNKS2 / Fold change vs veh, TNKS2 / RFU, ZFP14 / Fold change vs veh, ZFP14 / RFU, ACTR2 / Fold change vs veh, ACTR2 / RFU, PPP3R1 / Fold change vs veh, PPP3R1 / RFU, PIK3R1 / Fold change vs veh, PIK3R1 / RFU, HNRNPA1 / Fold change vs veh, HNRNPA1 / RFU, RNF170 / Fold change vs veh, RNF170 / RFU, ZNF28 / Fold change vs veh, ZNF28 / RFU, RNGTT / Fold change vs veh, RNGTT / RFU, OGT / Fold change vs veh, OGT / RFU, BRD1 / Fold change vs veh, BRD1 / RFU, MARS / Fold change vs veh, MARS / RFU, ZNF655 / Fold change vs veh, ZNF655 / RFU, FAHD1 / Fold change vs veh, FAHD1 / RFU, BDP1 / Fold change vs veh, BDP1 / RFU, LRRCC1 / Fold change vs veh, LRRCC1 / RFU, ARID1A / Fold change vs veh, ARID1A / RFU, ZNF146 / Fold change vs veh, ZNF146 / RFU, ZNF330 / Fold change vs veh, ZNF330 / RFU, GPN3 / Fold change vs veh, GPN3 / RFU, C9orf123 / Fold change vs veh, C9orf123 / RFU, N4BP2L2 / Fold change vs veh, N4BP2L2 / RFU, ARFIP1 / Fold change vs veh, ARFIP1 / RFU, FAM179B / Fold change vs veh, FAM179B / RFU, BCL10 / Fold change vs veh, BCL10 / RFU, UHRF1BP1L / Fold change vs veh, UHRF1BP1L / RFU, BET1 / Fold change vs veh, BET1 / RFU, CNOT2 / Fold change vs veh, CNOT2 / RFU, ZNF268 / Fold change vs veh, ZNF268 / Fold change vs veh, ZNF507 / RFU, DGCR2 / Fold change vs veh, DGCR2 / RFU, WDSUB1 / Fold change vs veh, WDSUB1 / Fold change vs veh, HSP90B1 /// MIR3652 / RFU, ADSS / Fold change vs veh, ADSS / RFU, GK / Fold change vs veh, GK / RFU, ZNF148 / Fold change vs veh, ZNF148 / RFU, TAF9 / Fold change vs veh, TAF9 / RFU, SLC1A5 / Fold change vs veh, SLC1A5 / RFU, SLMO2 / Fold change vs veh, SLMO2 / RFU, ABCC4 / Fold change vs veh, ABCC4 / RFU, LOC101060439 /// RAP1B / Fold change vs veh, LOC101060439 /// RAP1B / RFU, RFX7 / Fold change vs veh, RFX7 / RFU, GTPBP10 / Fold change vs veh, GTPBP10 / RFU, CNEP1R1 / Fold change vs veh, CNEP1R1 / RFU, BIVM-ERCC5 /// ERCC5 / Fold change vs veh, BIVM-ERCC5 /// ERCC5 / RFU, ILF3 / Fold change vs veh, ILF3 / RFU 11762660_at / Fold change /veh 11762660_at / RFU VCAN (11757783_s_at) / Fold change /veh VCAN (11757783_s_at) / RFU DDX43 (11728927_at) / Fold change /veh DDX43 (11728927_at) / RFU KRT8 (11758188_x_at) / Fold change /veh KRT8 (11758188_x_at) / RFU NKD1 (11759106_at) / Fold change /veh NKD1 (11759106_at) / RFU SRD5A1 (11742802_a_at) / Fold change /veh SRD5A1 (11742802_a_at) / RFU TPSAB1 /// TPSB2 (11721975_s_at) / Fold change /veh TPSAB1 /// TPSB2 (11721975_s_at) / RFU GSTM3 (11746129_a_at) / Fold change /veh GSTM3 (11746129_a_at) / RFU IL23R (11737362_x_at) / Fold change /veh IL23R (11737362_x_at) / RFU TMEM51 (11727254_a_at) / Fold change /veh TMEM51 (11727254_a_at) / RFU PIWIL2 (11732686_x_at) / Fold change /veh PIWIL2 (11732686_x_at) / RFU ORM1 (11744905_x_at) / Fold change /veh ORM1 (11744905_x_at) / RFU CCDC152 (11743942_at) / Fold change /veh CCDC152 (11743942_at) / RFU ECM1 (11717891_a_at) / Fold change /veh ECM1 (11717891_a_at) / RFU IL23R (11748794_a_at) / Fold change /veh IL23R (11748794_a_at) / RFU TNFAIP8L3 (11732012_x_at) / Fold change /veh TNFAIP8L3 (11732012_x_at) / RFU MBOAT4 (11741988_at) / Fold change /veh MBOAT4 (11741988_at) / RFU 11764193_at / Fold change /veh 11764193_at / RFU TMEM53 (11763286_at) / Fold change /veh TMEM53 (11763286_at) / RFU MAGEB2 (11727129_at) / Fold change /veh MAGEB2 (11727129_at) / RFU TMEM200A (11744735_a_at) / Fold change /veh TMEM200A (11744735_a_at) / RFU CCDC152 (11751479_a_at) / Fold change /veh CCDC152 (11751479_a_at) / RFU FAM211A (11726209_a_at) / Fold change /veh FAM211A (11726209_a_at) / RFU RGS16 (11746705_a_at) / Fold change /veh RGS16 (11746705_a_at) / RFU VCAN (11755009_s_at) / Fold change /veh VCAN (11755009_s_at) / RFU RHOB (11743442_s_at) / Fold change /veh RHOB (11743442_s_at) / RFU RGS16 (11720943_a_at) / Fold change /veh RGS16 (11720943_a_at) / RFU RGS16 (11720944_at) / Fold change /veh RGS16 (11720944_at) / RFU, VPS4B / Fold change vs veh, VPS4B / RFU, CREB1 / Fold change vs veh, CREB1 / RFU, DNAJC13 / Fold change vs veh, DNAJC13 / RFU, GNAQ / Fold change vs veh, GNAQ / RFU, CDK5R1 / Fold change vs veh, CDK5R1 / RFU, ZRANB3 / Fold change vs veh, ZRANB3 / RFU, CUL4A / Fold change vs veh, CUL4A / RFU, CCNY / Fold change vs veh, CCNY / RFU, UFL1 / Fold change vs veh, UFL1 / RFU, COG3 / Fold change vs veh, COG3 / RFU, DIAPH2 / Fold change vs veh, DIAPH2 / RFU, SKA2 / Fold change vs veh, SKA2 / RFU, AFF3 / Fold change vs veh, AFF3 / RFU, LMF1 / Fold change vs veh, LMF1 / RFU, IPO11 / Fold change vs veh, IPO11 / RFU, DFFB / Fold change vs veh, DFFB / RFU, FOXP1 / Fold change vs veh, FOXP1 / RFU, CARD8 / Fold change vs veh, CARD8 / RFU, STRN3 / Fold change vs veh, STRN3 / RFU, ADK / Fold change vs veh, ADK / RFU, RASSF2 / Fold change vs veh, RASSF2 / RFU, WIPF1 / Fold change vs veh, WIPF1 / RFU, LARP1B / Fold change vs veh, LARP1B / RFU, RASA1 / Fold change vs veh, RASA1 / RFU, RB1 / Fold change vs veh, RB1 / RFU, PPFIA1 / Fold change vs veh, PPFIA1 / RFU, MAT2A / Fold change vs veh, MAT2A / RFU, CCT5 / Fold change vs veh, CCT5 / RFU, WDR92 / Fold change vs veh, WDR92 / RFU, CUX1 / Fold change vs veh, CUX1 / RFU, TTC7A / Fold change vs veh, TTC7A / RFU, TMEM135 / Fold change vs veh, TMEM135 / RFU, DEPTOR / Fold change vs veh, DEPTOR / RFU, CPM / Fold change vs veh, CPM / RFU, DNAJB6 / Fold change vs veh, DNAJB6 / RFU, CACNA2D3 / Fold change vs veh, CACNA2D3 / RFU, DTX4 / Fold change vs veh, DTX4 / RFU, TFCP2 / Fold change vs veh, TFCP2 / RFU, GMCL1 /// GMCL1P1 / Fold change vs veh, GMCL1 /// GMCL1P1 / RFU, AEBP2 / Fold change vs veh, AEBP2 / RFU, SNHG1 /// SNORD22 /// SNORD25 /// SNORD26 /// SNORD27 /// SNORD28 /// SNORD29 /// SNORD31 / Fold change vs veh, SNHG1 /// SNORD22 /// SNORD25 /// SNORD26 /// SNORD27 /// SNORD28 /// SNORD29 /// SNORD31 / Fold change (Aza/veh), C12orf56 (ProbeSet 11735607_a_at) / Fold change (ACY-1035/veh), C12orf56 (ProbeSet 11735607_a_at) / Fold change (Aza/veh), FGFR1OP (ProbeSet 11751329_s_at) / Fold change (ACY-1035/veh), FGFR1OP (ProbeSet 11751329_s_at) / Fold change (Aza/veh), VPS36 (ProbeSet 11739960_a_at) / Fold change (ACY-1035/veh), VPS36 (ProbeSet 11739960_a_at) / RFU SYPL1 (11715823_x_at) / Fold change /veh SYPL1 (11715823_x_at) / RFU IGFBP7 (11715501_s_at) / Fold change /veh IGFBP7 (11715501_s_at) / RFU REEP3 (11722064_at) / Fold change /veh REEP3 (11722064_at) / RFU IGLL1 (11728026_x_at) / Fold change /veh IGLL1 (11728026_x_at): dose or concentration left out as unconfirmed
Details: ProbeSet 11730501_a_at; LIST D

## Nc1ccc(-c2cccs2)cc1NC(=O)c1ccc2c(c1)cc(C1CC1)n2CCN1CCOCC1 [ACY-1035]
  RFU, CACNA2D3: 202.11 RFU
